Test system: 192522-019-R-J2-PDC complex tumor spheroid viability
Assay: Anticancer human tumor 192522-019-R-J2-PDC patient-derived colon adenocarcinoma cell line growth inhibition [POLQ]
Conditions: for IC50: curve of first compound; for viability, T/C: stronger effect = lower value
Method in brief: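 Complex spheroid viability model combining PDC tumour cells with endothelial (HUVEC) and MSC stromal cells. Novobiocin, ART-558 or RP6685 were tested singly and in combination with standard and investigational anticancer drugs. Each was titrated in half-log steps from near clinical Cmax, or from 10 microM where Cmax was unknown.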

[1] = second compound 0.0316 µM, first compound 0.0316 µM
[2] = second compound 0.0316 µM, first compound 0.1 µM
[3] = second compound 0.0316 µM, first compound 0.316 µM
[4] = second compound 0.0316 µM, first compound 1 µM
[5] = second compound 0.0316 µM, first compound 3.16 µM
[6] = second compound 0.0316 µM, first compound 10 µM
[7] = second compound 0.1 µM, first compound 0.0316 µM
[8] = second compound 0.1 µM, first compound 0.1 µM
[9] = second compound 0.1 µM, first compound 0.316 µM
[10] = second compound 0.1 µM, first compound 1 µM
[11] = second compound 0.1 µM, first compound 3.16 µM
[12] = second compound 0.1 µM, first compound 10 µM
[13] = second compound 0.316 µM, first compound 0.0316 µM
[14] = second compound 0.316 µM, first compound 0.1 µM
[15] = second compound 0.316 µM, first compound 0.316 µM
[16] = second compound 0.316 µM, first compound 1 µM
[17] = second compound 0.316 µM, first compound 3.16 µM
[18] = second compound 0.316 µM, first compound 10 µM
[19] = second compound 1 µM, first compound 0.0316 µM
[20] = second compound 1 µM, first compound 0.1 µM
[21] = second compound 1 µM, first compound 0.316 µM
[22] = second compound 1 µM, first compound 1 µM
[23] = second compound 1 µM, first compound 3.16 µM
[24] = second compound 1 µM, first compound 10 µM
[25] = second compound 3.16 µM, first compound 0.0316 µM
[26] = second compound 3.16 µM, first compound 0.1 µM
[27] = second compound 3.16 µM, first compound 0.316 µM
[28] = second compound 3.16 µM, first compound 1 µM
[29] = second compound 3.16 µM, first compound 3.16 µM
[30] = second compound 3.16 µM, first compound 10 µM
[31] = second compound 10 µM, first compound 0.0316 µM
[32] = second compound 10 µM, first compound 0.1 µM
[33] = second compound 10 µM, first compound 0.316 µM
[34] = second compound 10 µM, first compound 1 µM
[35] = second compound 10 µM, first compound 3.16 µM
[36] = second compound 10 µM, first compound 10 µM
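Note: spheroids exposed to drugs for seven days before reading.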
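Throughout, for viability, T/C: 100% = DMSO vehicle control viability in luminescence.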

`CC1COCCN1c1cc(-c2ccnn2C)c2ccnc(-c3ccn[nH]3)c2n1` (stereo unspecified) + Cc1cccc(N(C)C(=O)C2C(O)CCN2c2nc(C)cc(C(F)(F)F)c2C#N)c1 gave an IC50 (second compound 0.0316 µM) of 0.359 µM, an IC50 (second compound 0.1 µM) of 0.287 µM and an IC50 (second compound 0.316 µM) of 0.397 µM. The IC50 (second compound 1 µM) was 0.428 µM, the IC50 (second compound 3.16 µM) was 0.402 µM and the IC50 (second compound 10 µM) was 0.373 µM. It also gave a viability, T/C [1] of 101%, a viability, T/C [2] of 73% and a viability, T/C [3] of 55.6%. The viability, T/C [4] was 32.6%, the viability, T/C [5] was 43.4% and the viability, T/C [6] was 47.4%. It also gave a viability, T/C [7] of 108%, a viability, T/C [8] of 76.8% and a viability, T/C [9] of 49.4%. For the same molecule, the viability, T/C [10] was 32.8%, the viability, T/C [11] was 42.1% and the viability, T/C [12] was 52.4%. For the same molecule, the viability, T/C [13] was 100%, the viability, T/C [14] was 77.2% and the viability, T/C [15] was 56.5%. The viability, T/C [16] was 32.5%, the viability, T/C [17] was 37.9% and the viability, T/C [18] was 48.8%. For the same molecule, the viability, T/C [19] was 91.4%, the viability, T/C [20] was 89.2% and the viability, T/C [21] was 53.1%. It also gave a viability, T/C [22] of 33%, a viability, T/C [23] of 37.7% and a viability, T/C [24] of 54.1%. For the same molecule, the viability, T/C [25] was 95%, the viability, T/C [26] was 84% and the viability, T/C [27] was 51.7%. It also gave a viability, T/C [28] of 36.3%, a viability, T/C [29] of 44% and a viability, T/C [30] of 57.9%. The viability, T/C [31] was 94.9%, the viability, T/C [32] was 83.1% and the viability, T/C [33] was 51.9%. It also gave a viability, T/C [34] of 33.8%, a viability, T/C [35] of 44.2% and a viability, T/C [36] of 56.8%.

Work on `CC1COCCN1c1cc(C2(S(C)(=N)=O)CC2)nc(-c2ccnc3[nH]ccc23)n1` (stereo unspecified) + Cc1cccc(N(C)C(=O)C2C(O)CCN2c2nc(C)cc(C(F)(F)F)c2C#N)c1 yielded an IC50 (second compound 0.0316 µM) of 4.75 µM, an IC50 (second compound 0.1 µM) of 4.15 µM and an IC50 (second compound 0.316 µM) of 5.85 µM. For the same molecule, the IC50 (second compound 1 µM) was 5.72 µM, the IC50 (second compound 3.16 µM) was 7.68 µM and the IC50 (second compound 10 µM) was 7.21 µM. It also gave a viability, T/C [1] of 112%, a viability, T/C [2] of 88% and a viability, T/C [3] of 92.8%. The viability, T/C [4] was 83.8%, the viability, T/C [5] was 59.9% and the viability, T/C [6] was 30.1%. For the same molecule, the viability, T/C [7] was 101%, the viability, T/C [8] was 97.8% and the viability, T/C [9] was 97.7%. The viability, T/C [10] was 89.2%, the viability, T/C [11] was 54.8% and the viability, T/C [12] was 34.2%. The viability, T/C [13] was 106%, the viability, T/C [14] was 105% and the viability, T/C [15] was 105%. It also gave a viability, T/C [16] of 90.1%, a viability, T/C [17] of 64.5% and a viability, T/C [18] of 37.6%. For the same molecule, the viability, T/C [19] was 97.6%, the viability, T/C [20] was 99.2% and the viability, T/C [21] was 96%. It also gave a viability, T/C [22] of 98.1%, a viability, T/C [23] of 64.3% and a viability, T/C [24] of 36.5%. For the same molecule, the viability, T/C [25] was 104%, the viability, T/C [26] was 100% and the viability, T/C [27] was 103%. The viability, T/C [28] was 91.9%, the viability, T/C [29] was 78.7% and the viability, T/C [30] was 41.4%. It also gave a viability, T/C [31] of 95.5%, a viability, T/C [32] of 106% and a viability, T/C [33] of 113%. It also gave a viability, T/C [34] of 98.9%, a viability, T/C [35] of 75.7% and a viability, T/C [36] of 39.8%.

For `CCCS(=O)(=O)Nc1ccc(F)c(C(=O)c2c[nH]c3ncc(-c4ccc(Cl)cc4)cc23)c1F` + Cc1cccc(N(C)C(=O)C2C(O)CCN2c2nc(C)cc(C(F)(F)F)c2C#N)c1, the IC50 (second compound 0.0316 µM) was > 10 µM, the IC50 (second compound 0.1 µM) was > 10 µM and the IC50 (second compound 0.316 µM) was > 10 µM. The IC50 (second compound 1 µM) was > 10 µM, the IC50 (second compound 3.16 µM) was > 10 µM and the IC50 (second compound 10 µM) was > 10 µM. It also gave a viability, T/C [1] of 101%, a viability, T/C [2] of 110% and a viability, T/C [3] of 96.8%. It also gave a viability, T/C [4] of 119%, a viability, T/C [5] of 109% and a viability, T/C [6] of 77.7%. For the same molecule, the viability, T/C [7] was 105%, the viability, T/C [8] was 102% and the viability, T/C [9] was 106%. The viability, T/C [10] was 114%, the viability, T/C [11] was 101% and the viability, T/C [12] was 78.7%. It also gave a viability, T/C [13] of 106%, a viability, T/C [14] of 101% and a viability, T/C [15] of 97.3%. It also gave a viability, T/C [16] of 97%, a viability, T/C [17] of 105% and a viability, T/C [18] of 62.8%. The viability, T/C [19] was 113%, the viability, T/C [20] was 118% and the viability, T/C [21] was 103%. The viability, T/C [22] was 102%, the viability, T/C [23] was 120% and the viability, T/C [24] was 61.5%. It also gave a viability, T/C [25] of 101%, a viability, T/C [26] of 106% and a viability, T/C [27] of 105%. It also gave a viability, T/C [28] of 103%, a viability, T/C [29] of 102% and a viability, T/C [30] of 73.2%. The viability, T/C [31] was 110%, the viability, T/C [32] was 102% and the viability, T/C [33] was 98.3%. The viability, T/C [34] was 106%, the viability, T/C [35] was 124% and the viability, T/C [36] was 66.2%.

From PubChem BioAssay AID1963850 (Molecular Pharmacology Branch, DTP, NCI, 2024)
